Test results: patent US20220370416A1, “COMPOUNDS AND METHODS FOR TARGETED DEGRADATION OF KRAS” (Arvinas Operations, Inc., priority 2020, published 2022)

Molecular target: T1, KRAS^G13D (Homo sapiens, UniProt P01116, G13D)
T1 construct: endogenous in cells; host or cells: HCT116
Experiment: KRAS degradation by immunoblot in HCT 116 cells (specificity)
Format: cell-based
Conditions: up to 10 μM
Excerpt: MRTX is known to be selective for mutant KRAS^G12C over other KRAS mutants (Hallin et al. 2020). To explore the specificity of LC-2, KRAS degradation was examined in HCT 116 cells, which harbor a heterozygous KRAS^G13D mutation.
NCI-H2030 (CRL-5914), MIA PaCa-2 (CRL-1420), NCI-H23 (CRL-5800), NCI-H358 (CRL-5807), and HCT-116 (CCL-247) cells were obtained from ATCC, expanded immediately, and frozen down. Vials were thawed and used within 20 passages. SW1573 cells were a gift from Arvinas and were handled in the same manner. […]
Cell lysates were clarified at 21000×g for 15 mins at 4° C. Protein levels were quantified using a 50:1 mixture of bicinchoninic acid solution (Millipore Sigma; cat. no. B9643) and 4% (w/v) copper(II) sulfate solution (Millipore Sigma; cat. no. C2284) incubated at 37° C. for 30 mins. Absorbance values at 560 nm were read on an EnVision 2101 Multilabel Reader (PerkinElmer). […]
Band intensities were quantified using BioRad's Image Lab Software. Total KRAS levels were examined by quantifying levels of both conjugated KRAS^G12C and unbound KRAS (wt or mutant) using an analysis box that spanned the two bands. This same sized box was used to quantify unbound KRAS in DMSO treated samples to account for background, except for LC-2 Epimer in FIGS. 6A and 6B. […]

T1 sequence (P01116 1-188 isoform P01116-2 G13D): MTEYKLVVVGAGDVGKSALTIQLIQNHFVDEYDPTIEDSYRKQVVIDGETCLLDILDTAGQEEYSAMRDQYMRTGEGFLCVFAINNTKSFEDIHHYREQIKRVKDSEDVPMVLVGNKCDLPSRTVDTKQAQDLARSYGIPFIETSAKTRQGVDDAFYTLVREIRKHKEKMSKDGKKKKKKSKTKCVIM

## C=C(F)C(=O)N1CCN(c2nc(OC[C@@H]3CCCN3CCCOCCC(=O)N[C@H](C(=O)N3C[C@H](O)C[C@H]3C(=O)NCc3ccc(-c4scnc4C)cc3)C(C)(C)C)nc3c2CCN(c2cccc4cccc(Cl)c24)C3)C[C@@H]1CC#N [LC-2, (2S,4R)-1-((S)-2-(3-(3-((S)-2-(((7-(8-chloronaphthalen-1-yl)-4-((S)-3-(cyanomethyl)-4-(2-fluoroacryloyl)piperazin-1-yl)-5,6,7,8-tetrahydropyrido[3,4-d]pyrimidin-2-yl)oxy)methyl)pyrrolidin-1-yl)propoxy)propanamido)-3,3-dimethylbutanoyl)-4-hydroxy-N-(4-(4-methylthiazol-5-yl)benzyl)pyrrolidine-2-carboxamide]
  engagement or degradation of KRAS^G13D: No engagement or degradation
